Laboratory results published in ChEMBL document CHEMBL3507680, “University of Dundee, Gates Library screen for HepG2 cell viability”.

Assay: Human HepG2 cell viability assay in 384 well format
Format: toxicity, cell-based
Parameters: dose 125 nL, time 70.5 hour; cytotoxicity at 70.5 h: concentration not given beside the values
Conditions: HepG2 cells, read-out: Inhibition

| SMILES | cytotoxicity at 70.5 h [%] |
| --- | --- |
| COC(C(=O)NC1CC1)c1ccccc1 (configuration not stated) | 28.7 |
| CCC(CC)C(=O)N1CCN(Cc2nc3ccccc3c(=O)[nH]2)CC1 | -14.5 |
| CC(=O)N1CCN(C(=O)NC(C)C)CC2(CC(=O)N(C)C2)C1 (configuration not stated) | -13.5 |
| Cn1nc(C(=O)NCc2cccnc2)c2c1CCS(=O)(=O)C2 | 24.8 |
| Cn1nc(C(=O)NCc2ccc(F)cc2)c2c1CCS(=O)(=O)C2 | -6.3 |
| CCC1=NC(SCC(=O)c2ccccc2)c2cc(CC)sc2N1 (configuration not stated) | 13.5 |
| Cc1c(S(=O)(=O)NC2CC2)cc2c(C)cc(=O)n3c2c1CCC3 | 0.953 |
| Cc1nnc(SCC(=O)NCc2ccc3c(c2)CCC(=O)N3)s1 | 2.74 |
| Cn1c(=O)oc2cc(S(=O)(=O)N3CCCCC3)c(Cl)cc21 | 47.9 |
| Cn1c(=O)oc2ccc(S(=O)(=O)N3CCC(c4ccccc4)C3)cc21 (configuration not stated) | 28.3 |
| O=C(NCc1ccccc1Cl)c1[nH]nc2c1CS(=O)(=O)CC2 | -5.21 |
| CCn1ncc(Nc2[nH]cnc3nncc2-3)c1C | -3.49 |
| Cc1nc2[nH]cnc(NCCN3CCOCC3)c-2n1 | -1.72 |
| COc1ccc(OC)c(C(C)Nc2ncnc3c2NC(=O)CN3)c1 (configuration not stated) | -18.2 |
| Cc1noc(C2CCN(C(=O)C3CCCO3)CC2)n1 (configuration not stated) | -9.25 |
| CCC(C)c1noc(C2CCN(C(=O)Cn3nc(C)cc3C)CC2)n1 (configuration not stated) | -5.55 |
| CCC(C)c1noc(C2CCN(C(=O)c3ccccn3)CC2)n1 (configuration not stated) | -3.62 |
| CC(C)Cc1noc(C2CCCN(C(=O)CCc3cnn(C)c3)C2)n1 (configuration not stated) | -8.4 |
| CNc1ncc2c(n1)CN(CCc1ccc(F)cc1)C2=O | -10.4 |
| CNc1ncc2c(n1)CN(C1CC(C)(C)NC(C)(C)C1)C2=O | -12.6 |
| CC(c1ccc2c(c1)OCO2)N1Cc2nc(N(C)C)ncc2C1=O (configuration not stated) | -0.989 |
| CCn1cc(N2Cc3nc(N(C)C)ncc3C2=O)cn1 | -4.06 |
| Cc1noc(C2CCN(C(=O)c3cccs3)CC2)n1 | -9.06 |
| Cc1cc(C)n(CC(=O)N2CCC(c3nc(C(C)C)no3)CC2)n1 | -7.07 |

| SMILES | cytotoxicity at 70.5 h [%] |
| --- | --- |
| CC(C)Cc1noc(C2CCCCN2C(=O)CCc2cnn(C)c2)n1 (configuration not stated) | -7.69 |
| Cc1nn(C)c(C)c1CN(C)CC1(O)CCCN(C)C1 (configuration not stated) | -19.1 |
| Cc1cc(C)n(CCC(=O)N2CCCC(c3nc(C(C)C)no3)C2)n1 (configuration not stated) | -4.86 |
| CCc1noc(C2CCCCN2C(=O)c2ccc(C)o2)n1 (configuration not stated) | 14 |
| COc1ccc(N2Cc3nc(N)ncc3C2=O)cc1 | 9.83 |
| CCc1noc(C2CCCCN2C(=O)c2cc(C)n(C)n2)n1 (configuration not stated) | 16.6 |
| Cc1cc(C(=O)N2CCCC(c3nc(C)no3)C2)on1 (configuration not stated) | -10.6 |
| Cc1nn(C)c2cn(C(C)C(=O)NCc3ccncc3)nc12 (configuration not stated) | -2.93 |
| Cc1cc(C)n(CCCNc2ncnc3c2NC(=O)CN3)n1 | -8.3 |
| CCN1CCCC(O)(CN(C)Cc2ccc(C)o2)C1 (configuration not stated) | -10.6 |
| CCn1nc(C)c2c1cnn2CC(=O)NC(C)c1cccc(OC)c1 (configuration not stated) | -15.4 |
| CCn1nc(C)c2c1cnn2CC(=O)N1CCN(C)CC1 | -1.92 |
| CCc1cc(OC)c(OC)cc1C(=O)Nc1cccnc1 | 13 |
| Cc1cccc2c1ccn2CCC(=O)O | 3.02 |
| Cc1ccc(CNc2cc3[nH]c(O)nc3cc2C)cc1 | -19.5 |
| CCc1noc(C2CCCCN2C(=O)c2cccnc2)n1 (configuration not stated) | -6.76 |
| Cc1nn(C(C)C)c2cnn(CC(=O)N3CCN(C)CC3)c12 | -8.52 |
| Cc1nn(C(C)C)c2cnn(CC(=O)N3CCSCC3)c12 | -1.45 |
| CCn1nccc1CN(C)C(=O)Cn1cc2c(n1)c(C)nn2CC | -1.76 |
| Cc1nc2[nH]cnc(Nc3cc(C)n(C)n3)c-2n1 | -1.58 |
| CCN1CCCC(O)(CNCc2ccccn2)C1 (configuration not stated) | -8.08 |
| CCN1CCCC(O)(CNCc2ccncc2)C1 (configuration not stated) | 14.1 |
| CN1CCN(c2nsc(-c3cccnc3)c2C#N)CC1 | -4.14 |
| CC(C)n1cc(N2Cc3nc(N4CCOCC4)ncc3C2=O)cn1 | 15.4 |

| SMILES | cytotoxicity at 70.5 h [%] |
| --- | --- |
| Cn1nc(C(=O)N2CCSCC2)cc1NC(=O)c1ccccc1 | -1.31 |
| CCn1nc(C)c(CNC(=O)c2nnc3ccc(Cl)cc3n2)c1C | 0.121 |
| O=C(NCC1CC1)c1nnc2ccc(Cl)cc2n1 | -13.3 |
| O=C1c2cnc(N3CCOCC3)nc2CN1C1CCS(=O)(=O)C1 (configuration not stated) | 5.93 |
| CC1CCN(c2ncc3c(n2)CN(c2ccc(F)cc2)C3=O)CC1 | -2.02 |
| O=C1c2cnc(N3CCCC3)nc2CN1C1CCS(=O)(=O)C1 (configuration not stated) | -2.78 |
| CC(C)CN1Cc2nc(N3CCCC3)ncc2C1=O | 19.8 |
| CN1CCN(C(=O)c2cc(NC(=O)c3ccccc3)n(C)n2)CC1 | -12.7 |
| CCn1nc(C)c(NC(=O)c2cc(NC(=O)C(C)C)n(C)n2)c1C | -5.54 |
| CC(C)C(=O)Nc1cc(C(=O)NC2CC(C)(C)NC(C)(C)C2)nn1C | 14.5 |
| CCn1nccc1CN(C)c1nc(N)nc2c1nc(C)n2C | -3.81 |
| Cc1nn(C)c2cn(C(C)C(=O)NCc3ccc(F)cc3)nc12 (configuration not stated) | -3.15 |
| Cn1nc(C(=O)N2CCSCC2)cc1NC(=O)c1ccco1 | -5.7 |
| Cc1ccc2c(cnn2CCC(=O)NCc2csc(C)n2)c1 | -14.7 |
| CC(=O)N[C@@H]1C[C@H](c2ccc(OCCO)cc2)OC2(CCOCC2)C1 | 7.41 |
| Cc1cc(O)nc(C2CN(CCC(F)(F)F)CCO2)n1 (configuration not stated) | -7.38 |
| Cc1cccnc1C(=O)N1CCCC(Cc2cncc3ccccc23)C1 (configuration not stated) | -3.08 |
| Cn1cncc1CN1CCCC1c1cncc(Oc2ccc(F)cc2)n1 (configuration not stated) | -10.5 |
| Cc1noc(C)c1-c1ccnc(C2CCN(C3CCOCC3)CC2)c1 | 0.77 |
| C[C@]1(O)CCN(Cc2ncccc2F)C[C@@H]1Oc1ccccc1 | -6.62 |
| C[C@]1(O)CN(Cc2ncccc2F)CC[C@@H]1Oc1ccccc1 | -7.87 |
| CNc1cc(C2CN(Cc3csc(C)n3)CCO2)nc(C)n1 (configuration not stated) | 9.88 |
| CC1(C(=O)N2CCOCC2)CN(C2CCCCC2)CCO1 (configuration not stated) | 0.715 |
| CCCn1nccc1-c1cc(C2CCN(C(C)=O)CC2)ccn1 | -8.34 |

| SMILES | cytotoxicity at 70.5 h [%] |
| --- | --- |
| Cc1nccc(C2CCCCN2Cc2ccc(F)cc2)n1 (configuration not stated) | 10.1 |
| Cc1c[nH]nc1C1CCCN(C(=O)Cn2cccn2)C1 (configuration not stated) | -5.23 |
| Cc1noc(C)c1-c1ccnc(C2CCNCC2)c1 | -2.34 |
| c1ccc(O[C@H]2C[C@@H]3CN(Cc4cnccn4)C[C@@H]3C2)cc1 | -0.72 |
| Cc1noc(C)c1-c1cccc(C2CCNCC2)n1 | 7.5 |
| Cc1cnc(C2(C)CCN(Cc3csc(C)n3)CC2)s1 | -4.14 |
| Cc1cccc(N2CCOC(C(=O)O)C2)c1 (configuration not stated) | -6.1 |
| O=C(CC1CCCC1)N1CCC(c2cc3ncccc3c(O)n2)CC1 | -9.11 |
| Cc1nnc(Nc2cccc(C3CCCN(Cc4ncc[nH]4)C3)n2)s1 (configuration not stated) | 14 |
| CN(C)c1cc(C2CCCN(S(=O)(=O)c3cn(C)cn3)C2)ccn1 (configuration not stated) | -4.64 |
| NC(=O)CN1CCCC1c1cncc(Oc2ccc(Cl)cc2)n1 (configuration not stated) | -4.42 |
| Cc1cc(C)nc(C2CCN(C(=O)CCn3ncc4ccccc43)C2)n1 (configuration not stated) | 2.78 |
| Cn1nccc1-c1cc(C2CCN(S(C)(=O)=O)CC2)ccn1 | -7.68 |
| COc1ccccc1Oc1cncc(C2CCCN(C)C2)n1 (configuration not stated) | -5.97 |
| CN(C)c1cc(C2CCCN(C(=O)Cn3cc(Cl)cn3)C2)ccn1 (configuration not stated) | -4.03 |
| COCC(=O)N1CCC(c2csc(NC(C)=O)n2)CC1 | -8.01 |
| CC(=O)Nc1nc(C2CN(C(=O)C3CCC3)C2)cs1 | -7.1 |
| CC1CCC(NCCNC(=O)c2cccs2)CC1 (configuration not stated) | -7.09 |
| Cc1cc(O)nc(C2CN(CCO)CCO2)n1 (configuration not stated) | 8.3 |
| O=C(c1cc[nH]n1)N1CCCC1c1cc(Nc2ccccn2)n[nH]1 (configuration not stated) | -11.2 |
| CN(C)[C@@H]1CN(C(=O)c2ccc3ccccc3n2)C[C@H]1O | -7.72 |
| Cc1cccc(Nc2cccc(C3CCCN(Cc4ncc[nH]4)C3)n2)n1 (configuration not stated) | -8.27 |
| CNc1cc(C2CN(Cc3coc(C)n3)CCO2)nc(C)n1 (configuration not stated) | -8.75 |
| O=C(CCN1CCc2ccccc21)N1CC(C(=O)N2CCOCC2)C1 | -5.25 |

| SMILES | cytotoxicity at 70.5 h [%] |
| --- | --- |
| O=S(=O)(N1CCOCC1)N1CCCC1Cn1cccn1 (configuration not stated) | -11.1 |
| O=C(c1cncs1)N1CCCC1c1ccn[nH]1 (configuration not stated) | -3.39 |
| Cc1noc(C)c1-c1ccc(C2CCCN2C(=O)c2cccnn2)nc1 (configuration not stated) | 19.1 |
| Cc1ncncc1C(=O)N1CCOC(C)(C(=O)NC2CCCC2)C1 (configuration not stated) | -1.33 |
| Cc1cccc(CC2CCCN(C(=O)Cc3csc(C)n3)C2)n1 (configuration not stated) | -10.5 |
| COCC(=O)N1CC(c2ccnc(Nc3ccc(C)cn3)n2)C1 | -10.9 |
| Cc1ccc(C2CN(C(=O)c3ccn(C)c(=O)c3)CCO2)nc1 (configuration not stated) | -7.64 |
| Cc1cc(N2CCC(c3n[nH]c4nccnc34)C2)ncn1 (configuration not stated) | 19.2 |
| Cc1ccc(Nc2nccc(C3CCN(CC(N)=O)C3)n2)nc1 (configuration not stated) | -8.32 |
| CS(=O)(=O)c1cn[nH]c1C1CCCCN1C(=O)c1cnccn1 (configuration not stated) | -5.18 |
| Cn1ccc(C(=O)N2CCCC2c2[nH]ncc2C(N)=O)n1 (configuration not stated) | -4.61 |
| CC(=O)N1CCCC(Cc2cnc(-n3ccnc3)cn2)C1 (configuration not stated) | -5.34 |
| CC(C)NC(=O)C1(Cc2ccccc2-c2cccs2)CCNC1 (configuration not stated) | -3.31 |
| O=S(=O)(N1CCCC1)N1CC[C@H](c2ccccc2)[C@H]2NCCCC[C@H]21 | -2.6 |
| CCN(CC)S(=O)(=O)N1CC[C@H](c2ccccc2)[C@H]2NCCCC[C@H]21 | -3.25 |
| c1cn(-c2cncc(C3CCNCC3)n2)cn1 | -6.9 |
| COc1ccc(-c2ccnc(C3CCNCC3)c2)cc1 | -5.12 |
| CCOCC1CN(Cc2nccs2)Cc2nn(CC3CC3)cc21 (configuration not stated) | -9.99 |
| Cc1noc(C)c1CN1CCc2c(CNc3nccs3)n[nH]c2C1 | -12.5 |
| O=C1COC2(CCN(S(=O)(=O)C3CC3)CC2)CN1c1cccnc1 | 40.1 |
| Cc1ccc(CN(CCCN2CCOCC2)Cc2cnc(C)n2C)o1 | 12.4 |
